Measured values reported in patent US10670605B2, “Cysteine reactive probes and uses thereof” (The Scripps Research Institute, priority 2015, dated 2020).
One block for each compound: values may come before it.

Key:
Test in all cases: Competitive isoTOP-ABPP, cell lysates
Type in all cases: binding
PES1 C272 (O00541) = PES1 C272 (O00541) (Homo sapiens, UniProt O00541); conditions: 500 μM, invitro
PES1 C361 (O00541) = PES1 C361 (O00541) (Homo sapiens, UniProt O00541)
O14933 C98 = O14933 C98 (Homo sapiens, UniProt O14933); conditions: 500 μM, invitro, ramos
ZAP70 C117 (P43403) = biological target: T1, ZAP70 C117 (P43403) (Homo sapiens, UniProt P43403); conditions: for isoTOP-ABPP ratio, P43403_C117: 500 μM, invitro; for isoTOP-ABPP ratio (reactivity profile), P43403_C117: 500 μm in-vitro ramos
T1 sequence (P43403 1-619): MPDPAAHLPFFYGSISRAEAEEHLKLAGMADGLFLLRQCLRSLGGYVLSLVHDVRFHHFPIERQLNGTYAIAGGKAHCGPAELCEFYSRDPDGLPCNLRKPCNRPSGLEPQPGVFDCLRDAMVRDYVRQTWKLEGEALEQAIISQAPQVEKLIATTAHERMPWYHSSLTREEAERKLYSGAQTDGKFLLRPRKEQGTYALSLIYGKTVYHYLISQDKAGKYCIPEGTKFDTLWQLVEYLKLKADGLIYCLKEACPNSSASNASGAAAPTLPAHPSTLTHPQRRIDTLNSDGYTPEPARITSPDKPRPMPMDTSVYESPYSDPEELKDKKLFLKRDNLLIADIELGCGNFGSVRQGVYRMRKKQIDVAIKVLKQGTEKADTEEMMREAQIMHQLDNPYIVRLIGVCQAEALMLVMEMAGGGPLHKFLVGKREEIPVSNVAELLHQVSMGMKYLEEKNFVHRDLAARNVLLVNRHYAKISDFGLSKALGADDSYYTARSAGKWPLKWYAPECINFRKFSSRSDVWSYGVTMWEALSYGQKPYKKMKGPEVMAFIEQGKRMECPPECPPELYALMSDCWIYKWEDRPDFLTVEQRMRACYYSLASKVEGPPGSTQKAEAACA

O00541_C272 = O00541_C272 (Homo sapiens, UniProt O00541); conditions: 500 μm
O114933_C98 = O114933_C98 (Homo sapiens, UniProt O14933); conditions: 500 μm
O114933_C98, sequence (O14933 whole entry): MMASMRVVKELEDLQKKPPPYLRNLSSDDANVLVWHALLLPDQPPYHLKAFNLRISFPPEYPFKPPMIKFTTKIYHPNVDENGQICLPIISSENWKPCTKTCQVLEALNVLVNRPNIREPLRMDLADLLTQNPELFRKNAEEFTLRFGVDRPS

PES1 C361 (O00541), sequence (O00541 whole entry, looked up, one chain of several): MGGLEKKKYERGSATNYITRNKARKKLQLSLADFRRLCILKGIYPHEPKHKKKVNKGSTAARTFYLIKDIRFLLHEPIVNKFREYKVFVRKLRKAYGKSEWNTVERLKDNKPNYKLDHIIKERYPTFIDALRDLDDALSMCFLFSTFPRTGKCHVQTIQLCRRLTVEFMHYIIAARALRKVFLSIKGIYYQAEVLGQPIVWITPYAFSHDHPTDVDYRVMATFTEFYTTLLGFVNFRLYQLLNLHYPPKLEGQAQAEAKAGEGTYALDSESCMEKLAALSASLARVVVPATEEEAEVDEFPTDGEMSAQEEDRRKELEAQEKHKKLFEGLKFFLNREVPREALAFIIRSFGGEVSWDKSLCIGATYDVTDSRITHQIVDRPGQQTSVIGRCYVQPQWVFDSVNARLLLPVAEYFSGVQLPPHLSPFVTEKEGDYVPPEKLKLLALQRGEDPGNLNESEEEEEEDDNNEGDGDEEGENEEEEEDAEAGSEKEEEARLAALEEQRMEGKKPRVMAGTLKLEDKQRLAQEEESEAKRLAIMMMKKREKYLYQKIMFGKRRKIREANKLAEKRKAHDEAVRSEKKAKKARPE
O00541_C272, sequence (O00541 whole entry, looked up): as the sequence (O00541 whole entry, looked up, one chain of several) above
PES1 C272 (O00541), sequence (O00541 whole entry, looked up, one chain of several): as above
O14933 C98, sequence (O14933 whole entry, one chain of several): as the sequence (O14933 whole entry) above

Structure (SMILES): C=CC(=O)N(c1ccccc1)c1ccc(Br)cc1 [compound 5]
isoTOP-ABPP ratio, O00541_C272 (PES1 C272 (O00541); ramos): 12.3

Structure (SMILES): O=C(CCl)Nc1cc(C(F)(F)F)cc(C(F)(F)F)c1 [compound 3]
R value (DMSO/fragment) (PES1 C361 (O00541); 500 μM, in vitro, MDA-MB-231): 1.5

Structure (SMILES): O=C(CCl)NC(=O)NC12CC3CC(CC(C3)C1)C2 [compound 12]
isoTOP-ABPP ratio O14933_C98 (O14933 C98): 1.3

Structure (SMILES): O=C(CCl)N1CCN(S(=O)(=O)c2ccccc2F)CC1 [compound 10]
isoTOP-ABPP ratio, P43403_C117 (ZAP70 C117 (P43403); 231): 20.0
isoTOP-ABPP ratio, P43403_C117 (ZAP70 C117 (P43403); ramos): 20.0
isoTOP-ABPP ratio, O00541_C272 (PES1 C272 (O00541); ramos): 2.2

Structure (SMILES): Cn1cc(S(=O)(=O)N2CCOCC2)cc1C(=O)NC(=O)CCl [compound 11]
isoTOP-ABPP ratio, O00541_C272 (PES1 C272 (O00541); ramos): 4.2
isoTOP-ABPP ratio O14933_C98 (O14933 C98): 3.4

Structure (SMILES): O=C(CCl)N1CCC(C(O)(c2ccccc2)c2ccccc2)CC1 [compound 20]
isoTOP-ABPP ratio (reactivity profile), O00541_C361 (PES1 C361 (O00541); 500 μm in-vitro ramos): 20.0
isoTOP-ABPP ratio (reactivity profile), O00541_C361 (PES1 C361 (O00541); 500 μm in-vitro ramos_231): 20.0
isoTOP-ABPP ratio (reactivity profile), P43403_C117 (ZAP70 C117 (P43403)): 20.0

Structure (SMILES): O=C(CCl)NCCc1c[nH]c2ccccc12 [compound 13]
isoTOP-ABPP ratio, O00541_C272 (PES1 C272 (O00541); 231): 1.7
isoTOP-ABPP ratio O14933_C98 (O14933 C98): 1.0

The next lines start with the values.

isoTOP-ABPP reactivity ratio, O00541_C272 (O00541_C272; in-vitro_ramos): 1.2
isoTOP-ABPP reactivity ratio, O00541_C272 (O00541_C272; in-vitro_ramos_231): 0.8
Structure (SMILES): O=C(CCl)Nc1ccccc1C1CCCCCC1 [compound 35]

isoTOP-ABPP reactivity profile ratio, O114933_C98 (O114933_C98; in-vitro_ramos): 1.0
Structure (SMILES): N#CC(=Cc1ccc(-c2ccccc2Cl)o1)C(N)=O [compound 42]

isoTOP-ABPP reactivity profile ratio, O114933_C98 (O114933_C98; in-vitro_ramos): 1.4
isoTOP-ABPP reactivity profile ratio, O114933_C98 (O114933_C98; in-vitro_ramos_231): 1.4
Structure (SMILES): O=C(CCl)Nc1ccc(-c2ccccc2)cc1 [compound 52]

isoTOP-ABPP ratio (reactivity profile), P43403_C117 (ZAP70 C117 (P43403)): 1.1
Structure (SMILES): COc1ccccc1OCCNC(=O)CCl [compound 28]

isoTOP-ABPP reactivity profile ratio, O114933_C98 (O114933_C98; in-vitro_ramos): 1.0
Structure (SMILES): C=CC(=O)N1CCC(Cc2ccccc2)CC1 [compound 53]

isoTOP-ABPP ratio (reactivity profile), O00541_C361 (PES1 C361 (O00541); 500 μm in-vitro ramos): 1.1
Structure (SMILES): N#C/C(=C\c1cc(C(F)(F)F)cc(C(F)(F)F)c1)C(N)=O [compound 23]

isoTOP-ABPP reactivity ratio, O00541_C272 (O00541_C272; in-vitro_ramos_231): 1.0
Structure (SMILES): C=CC(=O)Nc1cc(F)c(N2CCN(C(=O)OC(C)(C)C)CC2)c(F)c1 [compound 38]

isoTOP-ABPP ratio (reactivity profile), P43403_C117 (ZAP70 C117 (P43403)): 20.0
Structure (SMILES): C=CC(=O)N(Cc1cccnc1)c1ccc(Oc2ccccc2)c(C(F)(F)F)c1 [compound 15]

isoTOP-ABPP reactivity profile ratio, O114933_C98 (O114933_C98; in-vitro_ramos_231): 1.5
Structure (SMILES): O=C(CCl)N1CCc2cc(Br)ccc21 [compound 50]

isoTOP-ABPP reactivity ratio, O00541_C272 (O00541_C272; in-vitro_ramos): 1.0
Structure (SMILES): C=CC(=O)N1CCC(c2noc3ccc(F)cc23)CC1 [compound 37]

isoTOP-ABPP reactivity profile ratio, O114933_C98 (O114933_C98; in-vitro_ramos_231): 2.0
Structure (SMILES): O=C(CCl)NC1C(O)OC(CO)C(O)C1O (mixture of isomers) [compound 44]
